Measured values published in ChEMBL document CHEMBL1157802, “5-Functionalized indazoles as glucocorticoid receptor agonists” (Bioorg Med Chem Lett, 2010).

Assays:
[1] = biological target: Histamine H1 receptor (Homo sapiens) (UniProt P35367); experiment: Inhibition of histamine H1 receptor at 1 uM
[2] = Inhibition of central imidazoline I2 receptor at 1 uM
[3] = biological target: T1, Muscarinic acetylcholine receptor M2 (Homo sapiens) (UniProt P08172); experiment: Inhibition of muscarinic M2 receptor at 1 uM
T1 sequence (whole entry): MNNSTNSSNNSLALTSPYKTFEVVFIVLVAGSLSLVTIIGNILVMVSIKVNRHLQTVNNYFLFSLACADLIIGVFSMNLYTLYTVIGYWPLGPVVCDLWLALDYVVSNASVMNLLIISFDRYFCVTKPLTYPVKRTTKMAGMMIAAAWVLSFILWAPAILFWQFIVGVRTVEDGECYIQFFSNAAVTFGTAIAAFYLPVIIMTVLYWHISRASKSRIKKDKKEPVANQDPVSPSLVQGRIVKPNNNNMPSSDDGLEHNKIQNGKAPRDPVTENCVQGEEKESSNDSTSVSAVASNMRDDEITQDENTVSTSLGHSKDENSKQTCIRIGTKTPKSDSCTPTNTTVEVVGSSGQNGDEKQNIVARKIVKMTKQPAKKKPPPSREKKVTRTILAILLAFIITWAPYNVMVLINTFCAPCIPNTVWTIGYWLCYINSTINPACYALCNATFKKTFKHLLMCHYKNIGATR

[4] = biological target: Muscarinic acetylcholine receptor M3 (Homo sapiens) (UniProt P20309); experiment: Inhibition of muscarinic M3 receptor at 1 uM
[5] = biological target: Mu-type opioid receptor (Homo sapiens) (UniProt P35372); experiment: Inhibition of mu opioid receptor at 1 uM
[6] = Inhibition of ATP-sensitive potassium channel at 1 uM
[7] = biological target: Prostaglandin E2 receptor EP4 subtype (Homo sapiens) (UniProt P35408); experiment: Inhibition of prostanoid EP4 receptor at 1 uM
[8] = Inhibition of rolipram binding site at 1 uM
[9] = biological target: Sigma non-opioid intracellular receptor 1 (Homo sapiens) (UniProt Q99720); experiment: Inhibition of sigma 1 receptor at 1 uM
[10] = biological target: Sodium-dependent noradrenaline transporter (Homo sapiens) (UniProt P23975); experiment: Inhibition of norepinephrine transporter at 1 uM
[11] = Selectivity for human glucocorticoid receptor over ERbeta
[12] = Selectivity for human glucocorticoid receptor over androgen receptor
[13] = biological target: T2, Adenosine receptor A1 (Homo sapiens) (UniProt P30542); experiment: Inhibition of adenosine A1 receptor at 1 uM
T2 sequence (whole entry): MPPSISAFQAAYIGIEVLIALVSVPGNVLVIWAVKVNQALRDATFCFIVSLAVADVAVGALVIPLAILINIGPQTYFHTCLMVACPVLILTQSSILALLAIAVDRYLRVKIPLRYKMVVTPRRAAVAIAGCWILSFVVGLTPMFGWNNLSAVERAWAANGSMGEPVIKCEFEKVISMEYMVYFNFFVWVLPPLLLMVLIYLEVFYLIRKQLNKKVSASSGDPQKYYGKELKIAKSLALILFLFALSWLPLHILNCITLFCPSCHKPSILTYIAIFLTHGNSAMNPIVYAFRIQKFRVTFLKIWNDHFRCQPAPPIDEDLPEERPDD

[14] = biological target: T3, Alpha-2A adrenergic receptor (Homo sapiens) (UniProt P08913); experiment: Inhibition of adrenergic alpha2A receptor at 1 uM
T3 sequence (whole entry): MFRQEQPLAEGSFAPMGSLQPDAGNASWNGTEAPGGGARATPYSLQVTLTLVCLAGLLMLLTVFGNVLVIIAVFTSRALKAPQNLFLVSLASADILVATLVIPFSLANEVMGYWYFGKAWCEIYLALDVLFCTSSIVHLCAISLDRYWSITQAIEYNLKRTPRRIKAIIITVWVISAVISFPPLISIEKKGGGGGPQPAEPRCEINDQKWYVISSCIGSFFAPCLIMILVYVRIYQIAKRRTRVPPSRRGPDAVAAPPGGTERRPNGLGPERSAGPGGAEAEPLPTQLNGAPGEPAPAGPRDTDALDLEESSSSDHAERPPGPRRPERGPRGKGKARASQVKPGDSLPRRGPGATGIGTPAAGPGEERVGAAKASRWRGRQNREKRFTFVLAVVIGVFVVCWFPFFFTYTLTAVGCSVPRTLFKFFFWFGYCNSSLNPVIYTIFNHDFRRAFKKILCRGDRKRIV

[15] = Inhibition of calcium channel L type dihydropyridine binding site at 1 uM
[16] = biological target: D(2) dopamine receptor (Homo sapiens) (UniProt P14416); experiment: Inhibition of dopamine D2S receptor at 1 uM
Glucocorticoid receptor = biological target: T4, Glucocorticoid receptor (Homo sapiens, UniProt P04150)
T4 sequence (P04150 whole entry): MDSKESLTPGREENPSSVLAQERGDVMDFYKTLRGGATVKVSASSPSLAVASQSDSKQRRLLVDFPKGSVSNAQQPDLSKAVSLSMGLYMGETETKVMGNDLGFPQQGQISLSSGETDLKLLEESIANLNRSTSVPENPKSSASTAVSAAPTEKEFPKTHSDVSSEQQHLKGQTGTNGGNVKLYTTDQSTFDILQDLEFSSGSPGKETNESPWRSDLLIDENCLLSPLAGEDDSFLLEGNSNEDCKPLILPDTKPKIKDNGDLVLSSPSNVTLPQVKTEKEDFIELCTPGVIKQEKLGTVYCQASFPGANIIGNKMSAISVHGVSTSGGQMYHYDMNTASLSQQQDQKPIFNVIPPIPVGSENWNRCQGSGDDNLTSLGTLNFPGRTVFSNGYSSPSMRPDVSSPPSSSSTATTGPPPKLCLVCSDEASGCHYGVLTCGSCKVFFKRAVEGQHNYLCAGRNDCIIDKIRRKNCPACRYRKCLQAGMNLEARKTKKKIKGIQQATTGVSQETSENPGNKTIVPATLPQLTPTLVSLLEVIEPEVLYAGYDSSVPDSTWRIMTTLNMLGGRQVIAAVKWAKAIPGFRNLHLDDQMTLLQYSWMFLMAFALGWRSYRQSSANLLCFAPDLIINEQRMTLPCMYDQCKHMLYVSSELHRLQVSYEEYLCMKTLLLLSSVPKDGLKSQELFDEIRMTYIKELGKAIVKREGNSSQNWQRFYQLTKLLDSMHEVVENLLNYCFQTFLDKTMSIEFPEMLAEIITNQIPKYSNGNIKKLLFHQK
Description: Binding affinity to human glucocorticoid receptor by fluorescence polarization competitive binding assay

Chain of Histamine H1 receptor (Homo sapiens) (P35367 whole entry): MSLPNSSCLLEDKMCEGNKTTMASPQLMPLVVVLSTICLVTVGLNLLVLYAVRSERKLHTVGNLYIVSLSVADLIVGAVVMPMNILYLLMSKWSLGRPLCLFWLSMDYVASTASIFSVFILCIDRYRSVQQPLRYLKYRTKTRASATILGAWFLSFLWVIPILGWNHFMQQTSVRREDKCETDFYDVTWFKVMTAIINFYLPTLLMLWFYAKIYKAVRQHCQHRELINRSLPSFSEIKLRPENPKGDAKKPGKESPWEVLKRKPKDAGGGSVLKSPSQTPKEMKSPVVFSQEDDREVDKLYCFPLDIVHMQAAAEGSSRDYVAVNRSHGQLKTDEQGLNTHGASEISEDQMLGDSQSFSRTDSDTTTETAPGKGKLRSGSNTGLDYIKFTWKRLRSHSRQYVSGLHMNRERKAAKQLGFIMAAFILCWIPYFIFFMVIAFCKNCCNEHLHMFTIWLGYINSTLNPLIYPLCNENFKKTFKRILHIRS
Chain of Prostaglandin E2 receptor EP4 subtype (Homo sapiens) (P35408 whole entry): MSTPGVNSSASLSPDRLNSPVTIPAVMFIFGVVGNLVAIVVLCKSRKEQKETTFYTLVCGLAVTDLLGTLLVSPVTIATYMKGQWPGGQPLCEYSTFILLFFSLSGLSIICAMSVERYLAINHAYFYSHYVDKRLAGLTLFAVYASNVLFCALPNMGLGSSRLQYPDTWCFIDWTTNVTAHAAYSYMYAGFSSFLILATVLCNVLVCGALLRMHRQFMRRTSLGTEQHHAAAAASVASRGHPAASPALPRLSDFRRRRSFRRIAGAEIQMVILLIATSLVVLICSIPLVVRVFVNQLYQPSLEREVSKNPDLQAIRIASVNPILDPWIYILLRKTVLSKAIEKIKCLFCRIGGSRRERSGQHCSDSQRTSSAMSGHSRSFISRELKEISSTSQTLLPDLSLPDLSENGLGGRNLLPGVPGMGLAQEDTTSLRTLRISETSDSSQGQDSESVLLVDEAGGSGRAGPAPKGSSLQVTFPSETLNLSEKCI
Chain of Muscarinic acetylcholine receptor M3 (Homo sapiens) (P20309 whole entry, looked up): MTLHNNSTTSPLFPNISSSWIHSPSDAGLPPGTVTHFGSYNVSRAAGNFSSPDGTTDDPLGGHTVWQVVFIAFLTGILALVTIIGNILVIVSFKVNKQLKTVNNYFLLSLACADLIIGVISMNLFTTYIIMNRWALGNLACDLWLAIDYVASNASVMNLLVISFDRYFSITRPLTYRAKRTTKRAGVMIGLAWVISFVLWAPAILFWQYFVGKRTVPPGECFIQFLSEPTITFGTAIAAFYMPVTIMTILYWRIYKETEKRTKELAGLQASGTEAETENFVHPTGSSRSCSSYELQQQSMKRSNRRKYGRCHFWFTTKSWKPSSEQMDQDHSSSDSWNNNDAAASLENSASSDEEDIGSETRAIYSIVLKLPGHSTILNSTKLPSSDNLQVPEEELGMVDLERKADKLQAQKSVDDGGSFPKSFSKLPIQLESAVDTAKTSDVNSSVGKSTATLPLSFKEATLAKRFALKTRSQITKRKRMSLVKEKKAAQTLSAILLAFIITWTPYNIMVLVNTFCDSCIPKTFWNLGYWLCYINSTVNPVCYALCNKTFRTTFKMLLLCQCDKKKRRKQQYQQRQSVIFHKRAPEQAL
Chain of Sodium-dependent noradrenaline transporter (Homo sapiens) (P23975 whole entry): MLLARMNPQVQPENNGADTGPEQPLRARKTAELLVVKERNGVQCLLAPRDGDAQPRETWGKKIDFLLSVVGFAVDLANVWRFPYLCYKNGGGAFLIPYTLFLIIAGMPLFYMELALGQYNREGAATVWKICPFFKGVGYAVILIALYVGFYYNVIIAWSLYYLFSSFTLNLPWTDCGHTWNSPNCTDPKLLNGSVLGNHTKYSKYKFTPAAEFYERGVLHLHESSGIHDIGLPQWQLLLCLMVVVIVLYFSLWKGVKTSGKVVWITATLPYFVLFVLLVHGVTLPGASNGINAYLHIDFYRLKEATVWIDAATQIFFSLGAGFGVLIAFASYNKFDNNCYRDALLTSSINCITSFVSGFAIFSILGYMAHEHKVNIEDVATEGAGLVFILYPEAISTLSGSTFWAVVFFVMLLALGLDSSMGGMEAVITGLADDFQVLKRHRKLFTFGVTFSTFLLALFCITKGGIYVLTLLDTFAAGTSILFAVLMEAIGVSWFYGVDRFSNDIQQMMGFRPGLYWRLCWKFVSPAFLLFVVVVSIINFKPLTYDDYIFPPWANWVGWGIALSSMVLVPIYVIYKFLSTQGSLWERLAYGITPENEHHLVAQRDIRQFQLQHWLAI
Chain of Sigma non-opioid intracellular receptor 1 (Homo sapiens) (Q99720 whole entry): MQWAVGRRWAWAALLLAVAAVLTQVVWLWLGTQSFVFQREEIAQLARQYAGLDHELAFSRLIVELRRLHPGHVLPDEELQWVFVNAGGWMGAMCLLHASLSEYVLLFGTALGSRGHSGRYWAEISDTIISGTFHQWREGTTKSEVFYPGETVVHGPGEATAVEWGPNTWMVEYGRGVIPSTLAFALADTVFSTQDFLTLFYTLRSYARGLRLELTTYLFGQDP
Chain of D(2) dopamine receptor (Homo sapiens) (P14416 whole entry): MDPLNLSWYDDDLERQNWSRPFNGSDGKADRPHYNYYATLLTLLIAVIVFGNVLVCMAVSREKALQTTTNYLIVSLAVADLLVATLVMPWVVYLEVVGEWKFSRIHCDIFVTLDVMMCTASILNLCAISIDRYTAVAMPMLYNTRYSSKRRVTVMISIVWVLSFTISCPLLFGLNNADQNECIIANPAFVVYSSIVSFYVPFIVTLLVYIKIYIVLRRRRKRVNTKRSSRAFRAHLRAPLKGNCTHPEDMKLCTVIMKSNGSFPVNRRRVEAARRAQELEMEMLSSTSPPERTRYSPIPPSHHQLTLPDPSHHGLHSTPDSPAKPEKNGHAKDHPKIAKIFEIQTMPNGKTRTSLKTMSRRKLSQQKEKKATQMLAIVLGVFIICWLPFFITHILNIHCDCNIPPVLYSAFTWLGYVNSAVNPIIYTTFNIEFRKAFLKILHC
Chain of Mu-type opioid receptor (Homo sapiens) (P35372 whole entry): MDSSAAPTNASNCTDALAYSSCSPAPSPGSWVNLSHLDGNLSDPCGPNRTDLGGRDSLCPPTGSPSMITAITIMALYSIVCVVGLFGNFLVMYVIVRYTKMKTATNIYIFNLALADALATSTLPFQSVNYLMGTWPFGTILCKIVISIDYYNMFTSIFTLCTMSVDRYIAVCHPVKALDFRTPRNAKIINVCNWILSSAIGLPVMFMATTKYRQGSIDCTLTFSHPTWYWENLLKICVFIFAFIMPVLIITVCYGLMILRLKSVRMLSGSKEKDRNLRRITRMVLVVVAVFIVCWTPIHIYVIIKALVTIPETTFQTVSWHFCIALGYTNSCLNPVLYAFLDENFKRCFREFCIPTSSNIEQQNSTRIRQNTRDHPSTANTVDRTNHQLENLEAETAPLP

Q: For `OC(c1ccnc(Cl)c1)(c1ccc2c(cnn2-c2ccc(F)cc2)c1)C(F)(F)F` (single isomer, unassigned; (-)), which inhibition [1] is on record?
A: < 50%

Q: What about the inhibition [2] of the same molecule?
A: < 50%

Q: What about the inhibition [3] of the same molecule?
A: < 50%

Q: What about the inhibition [4] of the same molecule?
A: < 50%

Q: And the inhibition [5]?
A: < 50%

Q: And the inhibition [6]?
A: < 50%

Q: What about the inhibition [7] of the same molecule?
A: < 50%

Q: And the inhibition [8]?
A: < 50%

Q: And the inhibition [9]?
A: < 50%

Q: What about the inhibition [10] of the same molecule?
A: < 50%

Q: And the Ratio [11]?
A: > 1000

Q: What about the Ratio [12] of the same molecule?
A: > 1000

Q: And the inhibition [13]?
A: < 50%

Q: What about the inhibition [14] of the same molecule?
A: < 50%

Q: What about the inhibition [15] of the same molecule?
A: < 50%

Q: What about the inhibition [16] of the same molecule?
A: < 50%

Q: And the IC50 (Glucocorticoid receptor)?
A: 14 nM

Q: For `Cc1cc(C(O)(c2ccc3c(cnn3-c3ccc(F)cc3)c2)C(F)(F)F)ccc1F` (single isomer, unassigned; (-)), which inhibition [1] is on record?
A: < 50%

Q: And the inhibition [2]?
A: < 50%

Q: What about the inhibition [3] of the same molecule?
A: < 50%

Q: What about the inhibition [4] of the same molecule?
A: < 50%

Q: What about the inhibition [5] of the same molecule?
A: < 50%

Q: And the inhibition [6]?
A: < 50%

Q: What about the inhibition [7] of the same molecule?
A: < 50%

Q: And the inhibition [8]?
A: < 50%

Q: And the inhibition [9]?
A: < 50%

Q: What about the inhibition [10] of the same molecule?
A: < 50%

Q: What about the Ratio [11] of the same molecule?
A: > 1000

Q: What about the Ratio [12] of the same molecule?
A: > 1000

Q: What about the inhibition [13] of the same molecule?
A: < 50%

Q: And the inhibition [14]?
A: < 50%

Q: What about the inhibition [15] of the same molecule?
A: < 50%

Q: What about the inhibition [16] of the same molecule?
A: < 50%

Q: And the IC50 (Glucocorticoid receptor)?
A: 59 nM
